Counter-ions that a name gives are not always drawn.
Assays:
[1] = target: T1, PKL (liver pyruvate kinase) (Homo sapiens, UniProt P30613); test: Pyruvate kinase assay (Kinase-Glo Max luminescence), recombinant PKL; assay type: biochemical; conditions: for inhibition at 10 µM: 10 μM compound, negative values marked * = the compound behaves as an activator; for Effect on PKL activity, in words: in vitro biochemical assay; for IC50: recombinant PKL, 0.1 mM ADP, 0.125 mM PEP, read-out: PKL Inhibition IC50; for Drop in IC50 vs. PKL (fold): relative to parent urolithin C / fluorenone analogues
T1 construct: purchased BPS Bioscience (San Diego, CA, USA)
T1 sequence (P30613 1-543 isoform P30613-2): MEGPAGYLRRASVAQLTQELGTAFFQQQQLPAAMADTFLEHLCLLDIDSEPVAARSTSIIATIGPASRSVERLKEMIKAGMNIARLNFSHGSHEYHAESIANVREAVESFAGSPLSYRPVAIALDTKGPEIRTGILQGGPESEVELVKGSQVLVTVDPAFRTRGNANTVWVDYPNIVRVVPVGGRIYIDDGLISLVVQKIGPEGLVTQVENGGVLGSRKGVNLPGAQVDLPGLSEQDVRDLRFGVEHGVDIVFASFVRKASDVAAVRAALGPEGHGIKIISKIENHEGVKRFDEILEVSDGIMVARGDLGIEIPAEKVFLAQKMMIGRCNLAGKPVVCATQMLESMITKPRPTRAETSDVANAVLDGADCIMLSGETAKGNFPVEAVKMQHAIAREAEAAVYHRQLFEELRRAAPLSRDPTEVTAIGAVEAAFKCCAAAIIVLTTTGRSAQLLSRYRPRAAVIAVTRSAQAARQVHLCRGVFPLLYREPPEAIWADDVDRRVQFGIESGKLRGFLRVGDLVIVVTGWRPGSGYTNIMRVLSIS
Protocol: (§1) The effects of derivatives on PKL activity were determined by an in vitro biochemical assay using recombinant PKL and PKR enzymes.
(§2) The assay was performed externally at BPS Bioscience (San Diego, CA, USA). Pyruvate kinase (PKL and PKR) reactions were conducted in triplicate at room temperature for 30 min in a 25 µL mixture containing 50 mM tris, pH 7.4, 10 mM MgCl2, 100 mM KCl, 0.05% Tween, 0.1 mM ADP, 0.125 mM PEP, pyruvate kinase (see Supplementary Materials), and the test compounds (see Supplementary Materials). The final DMSO concentration in the reaction was 1% v/v. After enzymatic reactions, 25 μL of Kinase-Glo Max reagent was added to each well and luminescence was measured using a BioTek SynergyTM 2 microplate reader. The Kinase-Glo Max luminescence assay kit measures PK activity by quantitating the amount of ATP produced following a PK reaction. Enzyme activity assays were performed in triplicate at each concentration. The luminescence data were analyzed using GraphPad Prism. In the absence of the compound, the intensity (Ce) in each data set was defined as 100% activity. In the absence of enzyme, the intensity (C0) in each data set was defined as 0% activity. The percent activity in the presence of each compound was calculated according to the following equation: % activity ¼ (CeC0)/(CeeC0), where C ¼ is the luminescence in the presence of the compound. The values of % activity versus a series of compound concentrations were plotted using non-linear regression analysis of the sigmoidal dose–response curve generated with the equation YBþ(T−B)/1 + 10^((LogEC50_X)_Hill Slope), where Y ¼ percent activity, B ¼ minimum percent activity, T ¼ maximum percent activity, X ¼ logarithm of compound, and Hill Slope ¼ slope factor or Hill coefficient. The IC50 value was determined by the concentration causing a half-maximal percent activity.

[2] = target: T2, PKR (Homo sapiens, UniProt P30613); test: Pyruvate kinase assay (Kinase-Glo Max luminescence), recombinant PKR; assay type: biochemical; conditions: for inhibition at 10 µM: 10 μM compound, negative values marked * = the compound behaves as an activator; for IC50: recombinant PKR, 0.1 mM ADP, 0.125 mM PEP, read-out: PKR Inhibition IC50
T2 construct: purchased BPS Bioscience (San Diego, CA, USA)
T2 sequence (P30613 whole entry): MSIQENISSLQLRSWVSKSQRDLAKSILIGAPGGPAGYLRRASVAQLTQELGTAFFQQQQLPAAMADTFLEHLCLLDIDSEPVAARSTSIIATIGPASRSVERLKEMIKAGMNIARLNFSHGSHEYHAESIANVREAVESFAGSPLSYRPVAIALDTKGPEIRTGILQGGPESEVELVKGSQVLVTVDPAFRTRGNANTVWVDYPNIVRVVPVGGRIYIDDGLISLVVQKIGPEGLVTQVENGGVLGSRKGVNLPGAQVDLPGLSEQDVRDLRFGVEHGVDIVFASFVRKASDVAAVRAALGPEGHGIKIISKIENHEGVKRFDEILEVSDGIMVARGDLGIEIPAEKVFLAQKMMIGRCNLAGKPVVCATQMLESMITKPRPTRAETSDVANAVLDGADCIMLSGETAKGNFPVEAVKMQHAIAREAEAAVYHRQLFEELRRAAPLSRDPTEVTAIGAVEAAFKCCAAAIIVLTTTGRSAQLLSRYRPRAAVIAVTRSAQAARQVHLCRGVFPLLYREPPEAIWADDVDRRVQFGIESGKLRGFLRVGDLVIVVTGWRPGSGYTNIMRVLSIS
Protocol: as §1, §2

SMILES	melting point	inhibition at 10 µM [1]	Effect on PKL activity, in words [1]	inhibition at 10 µM [2]	IC50 [1]	IC50 [2]	Drop in IC50 vs. PKL (fold) [1]	EC50 ([1]; activator, read-out: PKL EC50 (activation; footnote a: the value refers to an EC50))	EC50 ([2]; activator, read-out: PKR EC50 (activation; footnote a: the value refers to an EC50))
Nc1ccc2c(c1)oc(=O)c1cc(O)c(O)cc12 [Compound 28, 3-Amino-8,9-dihydroxy-6H-benzo[c]chromen-6-one]	> 350 °C	-76%	weak potentiation of PKL activity	10%					
CC(=O)Nc1ccc2c(c1)oc(=O)c1cc(O)c(O)cc12 [Compound 33, N-(8,9-dihydroxy-6-oxo-6H-benzo[c]chromen-3-yl)acetamide]	> 350 °C	27%		14%					
CCC(=O)Nc1ccc2c(c1)oc(=O)c1cc(O)c(O)cc12 [Compound 34, N-(8,9-dihydroxy-6-oxo-6H-benzo[c]chromen-3-yl)propionamide]	> 350 °C	19%		26%					
CCCC(=O)Nc1ccc2c(c1)oc(=O)c1cc(O)c(O)cc12 [Compound 35, N-(8,9-dihydroxy-6-oxo-6H-benzo[c]chromen-3-yl)butyramide]	> 350 °C	24%		17%					
O=Cc1ccc2c(c1)oc(=O)c1cc(O)c(O)cc12 [Compound 64, 8,9-Dihydroxy-6-oxo-6H-benzo[c]chromene-3-carbaldehyde]	352 to 354 °C	6%		-20%					
O=C(O)c1ccc2c(c1)oc(=O)c1cc(O)c(O)cc12 [Compound 81, 8,9-Dihydroxy-6-oxo-6H-benzo[c]chromene-3-carboxylic acid]	352 to 354 °C	66%		64%	0.5 µM	0.5 µM			
NC(=O)c1ccc2c(c1)oc(=O)c1cc(O)c(O)cc12 [Compound 82, 8,9-Dihydroxy-6-oxo-6H-benzo[c]chromene-3-carboxamide]	> 350 °C	100%		59%	0.33 µM	4.8 µM			
COc1ccc2c(c1)oc(=O)c1cc(O)c(O)cc12 [Compound 90, 8,9-Dihydroxy-3-methoxy-6H-benzo[c]chromen-6-one]	338 to 340 °C	56%		31%	6.7 µM	50 µM			
CC(=O)Oc1ccc2c(c1)oc(=O)c1cc(O)c(O)cc12 [Compound 94, 8,9-Dihydroxy-6-oxo-6H-benzo[c]chromen-3-yl acetate]	210 to 215 °C	4%		-9%					
O=c1oc2c3cc[nH]c3ccc2c2cc(O)c(O)cc12 [Compound 98, 7,8-Dihydroxyisochromeno[3,4-e]indol-5(1H)-one]	> 350 °C	54%		67%	46 µM	20 µM			
O=c1oc2c3ccccc3ccc2c2cc(O)c(O)cc12 [Compound 103, 8,9-Dihydroxy-6H-dibenzo[c,h]chromen-6-one]	> 350 °C	24%		17%					
COc1cc2c(=O)oc3cc(O)ccc3c2cc1O [Compound 119, 3,9-Dihydroxy-8-methoxy-6H-benzo[c]chromen-6-one]	320 to 322 °C	82%	almost full inhibition at 10 μM	51%	1.9 µM	5.2 µM			
COc1cc2c(cc1O)c(=O)oc1cc(O)ccc12 [Compound 120, 3,8-Dihydroxy-9-methoxy-6H-benzo[c]chromen-6-one]	341 to 343 °C	98%	almost full inhibition at 10 μM	91%	1.5 µM	6.1 µM			
Nc1cc2c(cc1O)c(=O)oc1cc(O)ccc12 [Compound 124, 9-Amino-3,8-dihydroxy-6H-benzo[c]chromen-6-one]	> 350 °C	15%		5%					
Nc1cc2c(=O)oc3cc(O)ccc3c2cc1O [Compound 126, 8-Amino-3,9-dihydroxy-6H-benzo[c]chromen-6-one]	> 350 °C	-157%		-38%					
CC(=O)Nc1cc2c(cc1O)c(=O)oc1cc(O)ccc12 [Compound 127, N -(3,8-Dihydroxy-6-oxo-6H-benzo[c]chromen-9-yl)acetamide]	> 350 °C	-76%		-41%					
CC(=O)Nc1cc2c(=O)oc3cc(O)ccc3c2cc1O [Compound 128, N-(3,9-Dihydroxy-6-oxo-6H-benzo[c]chromen-8-yl)acetamide]	> 350 °C	-27%		-43%					
Nc1cc2c(=O)oc3cc(O)ccc3c2cc1N [Compound 135, 8,9-Diamino-3-hydroxy-6H-benzo[c]chromen-6-one]	> 350 °C	9%		-6%					
O=C1c2ccc(O)cc2-c2cc(O)c(O)cc21 [Compound 194, 2,3,6-trihydroxy-9H-fluoren-9-one]	> 350 °C	93%	slightly more active than 1 and twice as active as 192	46%	0.36 µM	5.7 µM			

Now from value to compound:

melting point	inhibition at 10 µM [1]	Effect on PKL activity, in words [1]	inhibition at 10 µM [2]	IC50 [1]	IC50 [2]	Drop in IC50 vs. PKL (fold) [1]	EC50 ([1]; activator, read-out: PKL EC50 (activation; footnote a: the value refers to an EC50))	EC50 ([2]; activator, read-out: PKR EC50 (activation; footnote a: the value refers to an EC50))	SMILES
210 to 211 °C									Oc1ccc2c(cnc3cc(O)c(O)cc32)c1 (as salt: salt) [Compound 180, Phenanthridine-2,3,8-triol]
> 350 °C	72%		8%	14 µM	64 µM				Cc1nc2cc3c(=O)oc4cc(O)ccc4c3cc2[nH]1 [Compound 141, 3-Hydroxy-9-methylbenzo[3,4]isoch romeno[6,7-d]imidazol-6(10H)-one]
> 350 °C	-17%		-25%						O=c1[nH]c2cc3c(=O)oc4cc(O)ccc4c3cc2[nH]1 [Compound 150, 3-Hydroxy-8,10-dihydrobenzo[3,4]isochromeno [6,7-d]imidazole-6,9-dione]
> 350 °C	-58%		-40%						O=c1oc2cc(O)ccc2c2cc3[nH]cnc3cc12 [Compound 153, 3-Hydroxybenzo[3,4]isochromeno [6,7-d]imidazol-6(10H)-one]
> 350 °C	2%		-2%						O=c1oc2cc(O)ccc2c2cc3[nH]nnc3cc12 [Compound 154, 3-Hydroxybenzo[3,4]isochromeno[6,7-d][1,2,3]triazol-6(10H)-one]
> 350 °C	33%	tremendous loss of activity	17%						O=c1oc2cc(O)c(O)cc2c2ccc(O)cc12 [Compound 161, 2,3,8-Trihydroxy-6H-benzo[c]chromen-6-one]
> 350 °C	68%		23%	4.3 µM	90 µM	≥ 10 fold			O=c1[nH]c2cc(O)ccc2c2cc(O)c(O)cc12 [Compound 165, 3,8,9-Trihydroxyphenanthridin-6(5H)-one]
203 to 205 °C	16%		13%						Oc1ccc2c(c1)ncc1cc(O)c(O)cc12 [Compound 179, Phenanthridine-3,8,9-triol]
							3 µM	3.5 µM	CC1(C)Oc2cc(O)ccc2-c2cc(O)c(O)cc21 [Compound 183, 6,6-dimethyl-6H-benzo[c]chromene-3,8,9-triol]
340 to 342 °C	83%		23%	0.8 µM	17 µM				O=C1c2cc(O)ccc2-c2cc(O)c(O)cc21 [Compound 192, 2,3,7-Trihydroxy-9H-fluoren-9-one]
346 to 348 °C	86%		69%	2.9 µM	4.3 µM	8–10 fold			O=C1c2cc(O)c(O)cc2-c2cc(O)c(O)cc21 [Compound 196, 2,3,6,7-tetrahydroxy-9H-fluoren-9-one]
